Assay results from patent US4725683A, “Fluorophenoxyphenoxypropionates and derivatives thereof” (The Dow Chemical Company, priority 1985, dated 1988).
Where two headings read alike, the source gives them in different places.

What was measured:
Test in all cases: Postemergent activity
Type in all cases: in vivo
Wheat = conditions: Triticum aestivum, post-emergence, 336 h, read-out: % Control
How it was run: (§1)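 Pots of plants about 10 cm tall sprayed to run-off at 125, 62.5, 31.25, 15.6, 7.8 and 3.9 ppm. Spray: active in acetone mixed with an equal volume of water containing 0.1% TWEEN 200. Growth scored two weeks later on a 0–100 scale (0 no effect, 100 complete kill).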

Wild Oats = conditions: Avena fatua, post-emergence, 336 h
How it was run: as §1

Yellow Foxtail = system: Yellow Foxtail
Protocol: (§2) Representative compositions of the present invention were evaluated for the postemergence control of species of plants listed in Table A. In these evaluations, pots of the plant species listed in Table A, grown to a height of about 10 cms, were used. […] The spray compositions were made by mixing the active ingredient in acetone to 1/2 the final volume, i.e., twice the final concentration. An equal amount of water was added to the active ingredient/acetone mixture wherein the water contained 0.1 percent by weight of TWEEN® 200 surfactant. The application to the plants was made to the point of run-off and was carried out with conventional spraying equipment. […] Thereafter, the pots were maintained under conditions conducive for plant growth.

Barley = system: Barley
Protocol: as §2

Blackgrass = system: Blackgrass
Protocol: as §2

Cheatgrass = system: Cheatgrass
Protocol: as §2

Green Foxtail = system: Green Foxtail
Protocol: as §2

Q: How did the plant injury at 3.9 ppm (Wheat; 3.9 ppm) turn out when `COC(=O)C(C)Oc1ccc(Oc2ccc(C(F)(F)F)cc2F)cc1` (stereo not shown) [2-[4-(2-fluoro-4-trifluoromethylphenoxy)phenoxy]propionic acid methyl ester] was run?
A: 0%

Q: And the plant injury at 7.8 ppm (Wheat; 7.8 ppm)?
A: 60%

Q: What about the plant injury at 15.6 ppm (Wheat; 15.6 ppm) of the same compound?
A: 90%

Q: And the plant injury at 31.25 ppm (Wheat; 31.25 ppm)?
A: 100%

Q: And the plant injury at 62.5 ppm (Wheat; 62.5 ppm)?
A: 100%

Q: What about the plant injury at 125 ppm (Wheat; 125 ppm) of the same compound?
A: 100%

Q: What about the pest or weed control at 3.9 ppm (Wild Oats; 3.9 ppm) of the same compound?
A: 0%

Q: What about the pest or weed control at 7.8 ppm (Wild Oats; 7.8 ppm, read-out: % Control) of the same compound?
A: 0%

Q: What about the pest or weed control at 15.6 ppm (Wild Oats; 15.6 ppm, read-out: % Control) of the same compound?
A: 60%

Q: What about the pest or weed control at 31.25 ppm (Wild Oats; 31.25 ppm, read-out: % Control) of the same compound?
A: 100%

Q: And the pest or weed control at 62.5 ppm (Wild Oats; 62.5 ppm, read-out: % Control)?
A: 100%

Q: What about the pest or weed control at 125 ppm (Wild Oats; 125 ppm, read-out: % Control) of the same compound?
A: 100%

Q: And the “% Control” value (Yellow Foxtail; 3.9 ppm)?
A: 35%

Q: What about the “% Control” value (Yellow Foxtail; 7.8 ppm) of the same compound?
A: 100%

Q: And the “% Control” value (Yellow Foxtail; 15.6 ppm)?
A: 100%

Q: And the “% Control” value (Yellow Foxtail; 31.25 ppm)?
A: 100%

Q: And the “% Control” value (Yellow Foxtail; 62.5 ppm)?
A: 100%

Q: What about the “% Control” value (Yellow Foxtail; 125 ppm) of the same compound?
A: 100%

Q: How did the plant injury at 15.6 ppm (Wheat) turn out when `COC(=O)C(C)Oc1ccc(Oc2ccc(Cl)cc2F)cc1` (racemic) [Example 4-Chloro-, 2-[4-(4-chloro-2-fluorophenoxy)phenoxy]propionic acid methyl ester] was run?
A: 0%

Q: What about the plant injury at 31.25 ppm (Wheat) of the same compound?
A: 0%

Q: And the plant injury at 62.5 ppm (Wheat)?
A: 0%

Q: And the plant injury at 125 ppm (Wheat)?
A: 0%

Q: What about the plant injury at 250 ppm (Wheat) of the same compound?
A: 0%

Q: What about the plant injury at 500 ppm (Wheat) of the same compound?
A: 40%

Q: What about the pest or weed control at 15.6 ppm (Wild Oats; read-out: % Control) of the same compound?
A: 40%

Q: And the pest or weed control at 31.25 ppm (Wild Oats; read-out: % Control)?
A: 100%

Q: What about the pest or weed control at 62.5 ppm (Wild Oats; read-out: % Control) of the same compound?
A: 95%

Q: And the pest or weed control at 125 ppm (Wild Oats; read-out: % Control)?
A: 90%

Q: What about the pest or weed control at 250 ppm (Wild Oats; read-out: % Control) of the same compound?
A: 100%

Q: What about the pest or weed control at 500 ppm (Wild Oats; read-out: % Control) of the same compound?
A: 100%

Q: What about the “% Control” value (Barley; 15.6 ppm) of the same compound?
A: 0%

Q: What about the “% Control” value (Barley; 31.25 ppm) of the same compound?
A: 0%

Q: And the “% Control” value (Barley; 62.5 ppm)?
A: 0%

Q: What about the “% Control” value (Barley; 125 ppm) of the same compound?
A: 0%

Q: And the “% Control” value (Barley; 250 ppm)?
A: 0%

Q: And the “% Control” value (Barley; 500 ppm)?
A: 50%

Q: And the “% Control” value (Blackgrass; 1.56 ppm)?
A: 50%

Q: What about the “% Control” value (Blackgrass; 3.1 ppm) of the same compound?
A: 50%

Q: And the “% Control” value (Blackgrass; 6.3 ppm)?
A: 100%

Q: And the “% Control” value (Blackgrass; 12.5 ppm)?
A: 100%

Q: What about the “% Control” value (Blackgrass; 25 ppm) of the same compound?
A: 99%

Q: What about the “% Control” value (Blackgrass; 50 ppm) of the same compound?
A: 100%

Q: And the “% Control” value (Blackgrass; 100 ppm)?
A: 100%

Q: And the “% Control” value (Cheatgrass; 1.56 ppm)?
A: 0%

Q: What about the “% Control” value (Cheatgrass; 3.1 ppm) of the same compound?
A: 0%

Q: What about the “% Control” value (Cheatgrass; 6.3 ppm) of the same compound?
A: 0%

Q: And the “% Control” value (Cheatgrass; 12.5 ppm)?
A: 0%

Q: What about the “% Control” value (Cheatgrass; 25 ppm) of the same compound?
A: 0%

Q: And the “% Control” value (Cheatgrass; 50 ppm)?
A: 10%

Q: What about the “% Control” value (Cheatgrass; 100 ppm) of the same compound?
A: 40%

Q: And the “% Control” value (Green Foxtail; 1.56 ppm)?
A: 95%

Q: What about the “% Control” value (Green Foxtail; 3.1 ppm) of the same compound?
A: 100%

Q: And the “% Control” value (Green Foxtail; 6.3 ppm)?
A: 100%

Q: And the “% Control” value (Green Foxtail; 12.5 ppm)?
A: 100%

Q: What about the “% Control” value (Green Foxtail; 25 ppm) of the same compound?
A: 100%

Q: What about the “% Control” value (Green Foxtail; 50 ppm) of the same compound?
A: 100%

Q: And the “% Control” value (Green Foxtail; 100 ppm)?
A: 100%

Q: What about the “% Control” value (Yellow Foxtail; 1.56 ppm) of the same compound?
A: 50%

Q: What about the “% Control” value (Yellow Foxtail; 3.1 ppm) of the same compound?
A: 80%

Q: What about the “% Control” value (Yellow Foxtail; 6.3 ppm) of the same compound?
A: 100%

Q: What about the “% Control” value (Yellow Foxtail; 12.5 ppm) of the same compound?
A: 100%

Q: And the “% Control” value (Yellow Foxtail; 25 ppm)?
A: 100%

Q: What about the “% Control” value (Yellow Foxtail; 50 ppm) of the same compound?
A: 100%

Q: And the “% Control” value (Yellow Foxtail; 100 ppm)?
A: 100%
